Test results reported in patent US20240400572A1, “COMPOUNDS AND METHODS FOR TREATING CANCERS THAT ARE MGMT DEFICIENT REGARDLESS OF MMR STATUS” (Yale University, priority 2021, published 2024).
Where “and” joins values, the source holds several entries; their conditions need not be identical. Identical values can stand only once. Like-named read-outs stand apart in the source and are kept apart here.

Legend:
[1] = test system: Isogenic glioma (Ln 229) cells, MGMT−/MMR−; assay: Clonogenic Survival Assay (FIG. 9); format: cell-based, human; settings: identical concentrations of test compound
Procedure: Clonogenic Survival Assay (FIG. 9): Isogenic glioma (Ln 229) cells were pretreated with the test drug in culture for 48-72 hours at the specified dilutions. Cells were then transferred in media without drug to 6-well plates in triplicate at 3-fold dilutions ranging from 9,000 to 37 cells per well. After 14 days, plates were washed with PBS and stained with crystal violet. Colonies were counted by hand. Counts were normalized to plating efficiency of the corresponding treatment condition.

[2] = test system: genomic DNA of LN229 MGMT−/MMR+ cells; assay: Genomic DNA denaturing gel electrophoresis; format: cell-based, human; settings: 200 μM, 24 h
Procedure: Genomic DNA Denaturing Gel Electrophoresis. Cells were trypsinized, washed with 1×PBS, and stored at −80° C. prior to processing. Genomic DNA was extracted with the DNeasy Blood & Tissue Kit (Qiagen) per kit protocol. A 0.7% agarose gel was prepared in 100 mM NaCl-2 mM EDTA (pH 8) and soaked in 40 mM NaOH-1 mM EDTA running buffer for 2 h. Genomic DNA (400 ng/well) was then loaded in 1× BlueJuice loading buffer (Invitrogen) and subjected to electrophoresis at 2 V/cm for 30 min, followed by 3 V/cm for 2 h. The gel was neutralized in 150 mM NaCl-100 mM Tris (pH 7.4) for 30 min, twice, and then stained with 1× SYBR Gold in 150 mM NaCl-100 mM Tris (pH 7.4) for 90 min. Imaging was performed on a ChemiDoc XRS+ Molecular Imager (Bio-Rad).

[3] = test system: LN229 MGMT−/MMR− intracranial tumors; assay: Intracranial tumor study; format: in vivo, mouse; settings: 25 mg/kg IP M-F×1 week as printed
[4] = Pharmacokinetic study, plasma; format: in vivo; settings: male C57BL/6 mice; for plasma Concentration, Individuals / AUC(0-inf) / AUC(0-t) / Cmax / MRT inf / Tmax / half-life: PO 20 mg/kg; for plasma Concentration, Individuals / concentration at 0.083 hr / concentration at 0.167 hr / concentration at 0.333 hr / concentration at 0.5 hr / concentration at 0.75 hr / concentration at 1 hr / concentration at 2 hr / concentration at 4 hr / concentration at 8 hr: 20 mg/kg; for concentration at 0.083 hr / concentration at 0.167 hr / concentration at 0.333 hr / concentration at 0.5 hr / concentration at 0.75 hr / concentration at 1 hr / concentration at 2 hr / concentration at 4 hr / concentration at 8 hr: male, C57BL/6, mouse, po; for concentration at 0.083 hr / concentration at 0.167 hr / concentration at 0.333 hr / concentration at 0.5 hr / concentration at 0.75 hr / concentration at 1 hr / concentration at 2 hr / concentration at 4 hr / concentration at 8 hr / AUC(0-inf) / AUC(0-t) / Cmax / MRT inf / Tmax / half-life: plasma; for concentration at 8 hr: N=3; for AUC(0-inf) / AUC(0-t) / Cmax / MRT inf / Tmax / half-life: mouse
Procedure: Compound KL50 dosing solution: 3.39% DMSO+96.61% (10% HP-β-CD in saline) at 2 mg/mL; • 1) Weigh 17.39 mg of compound KL50 into a clean tube. • 2) Add 0.295 mL DMSO into the tube containing the compound. • 3) Vortex the tube for 3 min and sonicate it for 4 min. • 4) Add 8.400 mL 10% HP-β-CD in saline into the tube and vortex the tube for 3 min. Compound I-1 dosing solution: 3.39% DMSO+96.61% (10% HP-β-CD in saline) at 2 mg/mL; • 1) Weigh 16.86 mg Compound I-1 into a clean tube. • 2) Add 0.286 mL DMSO into the tube containing the compound. • 3) Vortex the tube for 3 min and sonicate it for 4 min. • 4) Add 8.144 mL 10% HP-β-CD in saline into the tube and vortex the tube for 3 min.
The in-vivo pharmacokinetic and brain distribution study was conducted under the following parameters. Twenty seven C57BL/6 male mice were purchased from Shanghai JiHui Laboratory Animal Co. LTD. Each mouse weighted from 16 g to 17 g. The mice were fasted overnight and fed post 4 hr sampling. Compound KL50 and Compound I-I were administered via oral gavage (PO) at a dose of 20 mg/kg (10 mL/kg). After dosing, sampling was completed at 0.083, 0.167, 0.333, 0.5, 0.75, 1, 2, 4 and 8 hr post dose, with three mice sacrificed at each time point.
Terminal bleeding for plasma and brain was completed at each time point. Approximately 110 μL blood per time point was collected into a K2EDTA tube via the facial vein. The blood sample was put on wet ice and centrifuged to obtain plasma sample (2000 g, 5 min under 4° C.) within 15 minutes. Plasma samples were acidified with 6 μL of formic acid for every 54 μL of plasma. After blood collection, a mid-line incision was made in the animal's scalp and the skin was retracted. The skull overlying the brain was removed. Then, the whole brain was collected, rinsed with cold saline, dried on filtrate paper, and weighed; and then snap frozen by placing the brain into dry-ice. Plasma samples were stored at approximately −70° C. until analysis. Brain tissue was homogenized with 3 volumes (v/w) of PBS (1% FA) and then analyzed with LC-MS/MS. The concentration of study drug was corrected with a dilution factor of four as following: Brain concentration=brain homogenate conc.×4, assuming 1 g wet brain tissue equals to 1 mL

[5] = 0.083 hr, N=3, read-out: plasma Concentration, Mean
[6] = 0.083 hr, read-out: plasma Concentration, Individuals
[7] = 0.167 hr, N=3, read-out: plasma Concentration, Mean
[8] = 0.167 hr, read-out: plasma Concentration, Individuals
[9] = 0.333 hr, N=3, read-out: plasma Concentration, Mean
[10] = 0.333 hr, read-out: plasma Concentration, Individuals
[11] = 0.5 hr, N=3, read-out: plasma Concentration, Mean
[12] = 0.5 hr, read-out: plasma Concentration, Individuals
[13] = 0.75 hr, N=3, read-out: plasma Concentration, Mean
[14] = 0.75 hr, read-out: plasma Concentration, Individuals
[15] = 1 hr, N=3, read-out: plasma Concentration, Mean
[16] = 1 hr, read-out: plasma Concentration, Individuals
[17] = 2 hr, N=3, read-out: plasma Concentration, Mean
[18] = 4 hr, N=3, read-out: plasma Concentration, Mean

SMILES	crosslinked genomic DNA (in words) [2]	intracranial tumor growth by BLI (in words) [3]	plasma Concentration, Individuals ([4]; 0.083 hr)	plasma Concentration, Individuals ([4]; 0.167 hr)	plasma Concentration, Individuals ([4]; 0.333 hr)	plasma Concentration, Individuals ([4]; 0.5 hr)	plasma Concentration, Individuals ([4]; 0.75 hr)	plasma Concentration, Individuals ([4]; 1 hr)	plasma Concentration, Individuals ([4]; 2 hr)	plasma Concentration, Individuals ([4]; 4 hr)	plasma Concentration, Individuals ([4]; 8 hr)	concentration at 0.083 hr [4, 5] [ng/mL]	concentration at 0.083 hr [4, 6] [ng/mL]	concentration at 0.167 hr [4, 7] [ng/mL]	concentration at 0.167 hr [4, 8] [ng/mL]	concentration at 0.333 hr [4, 9] [ng/mL]	concentration at 0.333 hr [4, 10] [ng/mL]	concentration at 0.5 hr [4, 11] [ng/mL]	concentration at 0.5 hr [4, 12] [ng/mL]	concentration at 0.75 hr [4, 13] [ng/mL]	also measured
Cn1nnc2c(C(N)=O)ncn2c1=O [TMZ, temozolomide, reference compound]	no evidence of ICL induction	only transiently suppressed tumor growth																			cells survived [1]: about 100%
NC(=O)c1ncn2c(=O)n(CCF)nnc12 [KL-50, 3-(2-fluoroethyl)-4-oxo-3H,4H-imidazo[4,3-d][1,2,3,5]tetrazine-8-carboxamide]	presence of crosslinked DNA	effective	25600 ng/mL and 28000 ng/mL	22900 ng/mL and 18100 ng/mL	14500 ng/mL and 20900 ng/mL	12400 ng/mL and 15300 ng/mL	11000 ng/mL and 10200 ng/mL	7340 ng/mL and 12300 ng/mL	2750 ng/mL and 4570 ng/mL	1590 ng/mL and 796 ng/mL	305 ng/mL and 104 ng/mL and 185 ng/mL	25300	22300	21800	24500	18100	19000	14000	14400	10300	cells survived (fraction) [1]: less than 10^−4; concentration at 0.75 hr [4, 14]: 9590 ng/mL; concentration at 1 hr [4, 15]: 10000 ng/mL; concentration at 1 hr [4, 16]: 10500 ng/mL; concentration at 2 hr [4, 17]: 3300 ng/mL; concentration at 2 hr ([4]; 2 hr, read-out: plasma Concentration, Individuals): 2580 ng/mL; concentration at 4 hr [4, 18]: 1150 ng/mL; concentration at 4 hr ([4]; 4 hr, read-out: plasma Concentration, Individuals): 1060 ng/mL; concentration at 8 hr ([4]; 8 hr): 198 ng/mL; AUC(0-inf) [4]: 28800 ng·h/mL; AUC(0-t) [4]: 28400 ng·h/mL; Cmax [4]: 25300 ng/mL; MRT inf [4]: 88.2 min; Tmax [4]: 4.98 min; half-life [4]: 89.4 min
CNC(=O)c1ncn2c(=O)n(CCF)nnc12 [Compound I-1, 3-(2-fluoroethyl)-N-methyl-4-oxo-3H,4H-imidazo[4,3-d][1,2,3,5]tetrazine-8-carboxamide]			20300 ng/mL and 20500 ng/mL	15000 ng/mL and 16600 ng/mL	11300 ng/mL and 13400 ng/mL	7050 ng/mL and 7190 ng/mL	4010 ng/mL and 3430 ng/mL	1520 ng/mL and 2430 ng/mL	359 ng/mL and 714 ng/mL and 185 ng/mL	5.01 ng/mL and 2.42 ng/mL and 3.21 ng/mL	2.65 ng/mL and 5.63 ng/mL and 7.33 ng/mL	20700	21200	14300	11300	11200	8830	6850	6300	3810	concentration at 0.75 hr [4, 14]: 3980 ng/mL; concentration at 1 hr [4, 15]: 2040 ng/mL; concentration at 1 hr [4, 16]: 2180 ng/mL; concentration at 2 hr [4, 17]: 419 ng/mL; concentration at 4 hr [4, 18]: 3.55 ng/mL; concentration at 8 hr ([4]; 8 hr): 5.2 ng/mL; AUC(0-inf) [4]: 9680 ng·h/mL; AUC(0-t) [4]: 9680 ng·h/mL; Cmax [4]: 20700 ng/mL; MRT inf [4]: 32.2 min; Tmax [4]: 4.98 min; half-life [4]: 37.3 min
